For 30 molecules, IC50 results are on record in patent US20180118718A1, “Substituted Quinoxaline Derivatives” (Selvita S.A., priority 2015, published 2018).

T1 sequence (Q16875 whole entry): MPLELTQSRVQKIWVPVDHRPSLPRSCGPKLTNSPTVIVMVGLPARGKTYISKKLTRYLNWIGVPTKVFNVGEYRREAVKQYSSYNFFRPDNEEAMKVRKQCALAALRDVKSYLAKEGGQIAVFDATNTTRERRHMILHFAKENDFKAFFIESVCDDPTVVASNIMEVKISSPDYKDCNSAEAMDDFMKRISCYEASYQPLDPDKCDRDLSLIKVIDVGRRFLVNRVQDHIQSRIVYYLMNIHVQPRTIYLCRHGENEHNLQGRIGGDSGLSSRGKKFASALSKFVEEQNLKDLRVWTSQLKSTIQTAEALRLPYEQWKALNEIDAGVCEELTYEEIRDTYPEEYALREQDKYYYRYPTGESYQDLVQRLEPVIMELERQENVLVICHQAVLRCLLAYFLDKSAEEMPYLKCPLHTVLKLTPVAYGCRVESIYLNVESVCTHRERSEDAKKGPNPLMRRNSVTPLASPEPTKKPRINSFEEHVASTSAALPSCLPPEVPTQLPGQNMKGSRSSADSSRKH

The assay addresses T1, Human recombinant His-tagged PFKFB3 (Homo sapiens, UniProt Q16875).
T1 construct: His; made in house
Kind of assay: PFKFB3 IC50 Determination Assay (in vitro kinase assay, modified ADP-Glo system). The class given is biochemical. Conditions: ATP 20 μM and fructose-6-phosphate 2 μM (Km), 25 nM PFKFB3, 2 h, rt, ADP-Glo luminescence. The procedure:
PFKFB3 IC50 Determination Assay
In vitro kinase assay used to determine IC50 values for tested inhibitors is based on a modified ADP-Glo™ system (Promega) and consists of two parts:
1. Kinase reaction—performed in optimized conditions. At this step PFKFB3 phosphorylates its substrate Fructose-6-phosphate using ATP as a source of phosphate to produce Fructose-2,6-bisphosphate and ADP. Reaction is performed at Km values for ATP and substrate using optimized buffer composition and time of the reaction. Human recombinant His-tagged PFKFB3 (PFKFB3 BATCH II SEC) with confirmed activity is produced and purified in-house. 2. Detection of ADP as a product of the reaction using ADP-Glo™ system. This part is conducted by using the commercially available kit ADP-Glo™ Kinase Assay (Promega, cat. No# V9103) according to manufacturer's instruction, modified by 5x dilutions of assay reagents (both ADP-Glo™ Reagent and Kinase Detection Solution).
Test compounds are dissolved in DMSO and then transferred to the V-bottom 96-well plate.
15 μL per well of Mix 1 is transferred to assay wells of 96-well white plate. […] Total reaction volume is 30 μL per well. Samples are tested in duplicates. Final concentration of DMSO in the reaction is 6.7%. Conditions needed for performing PFKFB3 (PFKFB3 BATCH II SEC) in vitro kinase assay are given below:
This protocol is based on Technical Bulletin, ADP-Glo™ Kinase Assay (Promega) and is adapted to 96-well plate containing 30 μL reaction mixture:
30 μL of 5x diluted ADP-Glo™ Reagent is added to each well of 96-well plate containing 30 μL of reaction mixture. The plate is incubated for 90 minutes on a shaker at RT. 60 μL of 5x diluted Kinase Detection Solution is added to each well of 96-well plate containing 60 μL of the solution (ratio of kinase reaction volume to ADP-Glo™ Reagent volume to Kinase Detection Solution volume is maintained at 1:1:2). Plate is incubated for 40 minutes on a shaker at RT, protected from light. Luminescence is measured in the plate reader Synergy 2 (BioTek).
Luminescent readouts for compounds tested in 10 concentrations (routinely from 100 μM to […], […] serial dilutions) in duplicates, as well as for positive control, are first normalized to no-substrate negative control by its subtraction. In the next step, % of normalized positive control is calculated for each data point and plotted against test compound concentration:
% of control percent of positive control normalized to no-substrate negative control Lumcpd luminescence of test compound Lumneg luminescence of no-substrate negative control Lumpos luminescence of positive control
IC50 parameter is determined by the GraphPad Prism 5.0 software [log(inhibitor) vs. response −Variable slope (four parameters)].
With `COC(=O)c1ccc(S(C)(=O)=O)c(Nc2cc(-c3ccc4ccn(C)c4c3)c3nccnc3c2)c1` [Example 115, Methyl 4-methanesulfonyl-3-{[8-(1-methyl-1H-indol-6-yl)quinoxalin-6-yl]amino}benzoate], the IC50 lay in the range of 1000 to 10000 nM. With `Cn1ccc2ccc(-c3cc(Nc4cc(C(N)=O)ccc4S(C)(=O)=O)cc4nccnc34)cc21` [Example 116, 4-Methanesulfonyl-3-{[8-(1-methyl-1H-indol-6-yl)quinoxalin-6-yl]amino}benzamide], the half-inhibitory concentration (IC50) was 1 to 1000 nM. `CS(=O)(=O)c1ccncc1Nc1cc(-c2ccc3n[nH]nc3c2)c2nccnc2c1` [Example 118, 8-(1H-1,2,3-Benzotriazol-5-yl)-N-(4-methanesulfonylpyridin-3-yl)quinoxalin-6-amine]: the IC50 is 1000 to 10000 nM. Then `Cn1ccc2ccc(-c3cc(Nc4cc(C(=O)NN)ccc4S(C)(=O)=O)cc4nccnc34)cc21` [Example 119, 4-Methanesulfonyl-3-{[8-(1-methyl-1H-indol-6-yl)quinoxalin-6-yl]amino}benzohydrazide], with 1 to 1000 nM; and `CN(c1cc(-c2ccc3ccn(C)c3c2)c2nccnc2c1)c1cnccc1C(=O)Nc1cncnc1` [Example 125, 3-{Methyl[8-(1-methyl-1H-indol-6-yl)quinoxalin-6-yl]amino}-N-(pyrimidin-5-yl)pyridine-4-carboxamide], with 1000 to 10000 nM; and `Cn1ccc2ccc(-c3cc(Nc4cnccc4C(=O)NC4CCCCC4)cc4nccnc34)cc21` [Example 126, N-Cyclohexyl-3-{[8-(1-methyl-1H-indol-6-yl)quinoxalin-6-yl]amino}pyridine-4-carboxamide], with 1000 to 10000 nM. As to `Cc1ccc(C(N)=O)c(-c2cc(Nc3cnccc3S(C)(=O)=O)cc3nccnc23)c1` [Example 128, 2-{7-[(4-methanesulfonylpyridin-3-yl)amino]quinoxalin-5-yl}-4-methylbenzamide], the IC50 was 10000 to 100000 nM.

`CCOc1cccc(-c2cc(Nc3cnccc3S(C)(=O)=O)cc3nccnc23)c1` [Example 129, 8-(3-Ethoxyphenyl)-N-(4-methanesulfonylpyridin-3-yl)quinoxalin-6-amine]: the IC50 was in the range of 10000 to 100000 nM. Take `CC(C)Oc1cccc(-c2cc(Nc3cnccc3S(C)(=O)=O)cc3nccnc23)c1` [Example 130, N-(4-Methanesulfonylpyridin-3-yl)-8-[3-(propan-2-yloxy)phenyl]quinoxalin-6-amine]: the IC50 lay in the range of 10000 to 100000 nM.

Regarding `CC(=O)N1CCOCC1CNC(=O)c1ccncc1Nc1cc(-c2ccc3ccn(C)c3c2)c2nccnc2c1` (stereo not drawn) [Example 136, N-[(4-acetylmorpholin-3-yl)methyl]-3-{[8-(1-methyl-1H-indol-6-yl)quinoxalin-6-yl]amino}pyridine-4-carboxamide], the IC50 was 1 to 1000 nM. As for `CN1CCOC(CNC(=O)c2ccncc2Nc2cc(-c3ccc4ccn(C)c4c3)c3nccnc3c2)C1` (stereo not drawn) [Example 137, 3-{[8-(1-methyl-1H-indol-6-yl)quinoxalin-6-yl]amino}-N-[(4-methylmorpholin-2-yl)methyl]pyridine-4-carboxamide], the IC50 was in the range of 1 to 1000 nM.

In the case of `Cn1cncc1CNC(=O)c1ccncc1Nc1cc(-c2ccc3ccn(C)c3c2)c2nccnc2c1` [Example 143, N-[(1-methyl-1H-imidazol-5-yl)methyl]-3-{[8-(1-methyl-1H-indol-6-yl)quinoxalin-6-yl]amino}pyridine-4-carboxamide], the IC50 lay within 1 to 1000 nM. Then `Cn1ccc2ccc(-c3cc(Nc4cnccc4C(=O)NCc4cccnn4)cc4nccnc34)cc21` [Example 144, 3-{[8-(1-Methyl-1H-indol-6-yl)quinoxalin-6-yl]amino}-N-[(pyridazin-3-yl)methyl]pyridine-4-carboxamide], with 1 to 1000 nM; and `Cn1ccc2ccc(-c3cc(Nc4ccncc4C#N)cc4nccnc34)cc21` [Example 145, 4-{[8-(1-Methyl-1H-indol-6-yl)quinoxalin-6-yl]amino}pyridine-3-carbonitrile], with 1000 to 10000 nM. As for `N#Cc1cnccc1Nc1cc(Cl)c2nccnc2c1` [Example 146, 4-[(8-chloroquinoxalin-6-yl)amino]pyridine-3-carbonitrile], the figure is 10000 to 100000 nM. With `Cn1ccc2ccc(-c3cc(Nc4cncnc4C(N)=O)cc4nccnc34)cc21` [Example 149, 5-{[8-(1-methyl-1H-indol-6-yl)quinoxalin-6-yl]amino}pyrimidine-4-carboxamide], the IC50 was in the range of 1 to 1000 nM. As to `Cc1csc2ccc(-c3cc(Nc4cnccc4C#N)cc4nccnc34)cc12` [Example 150, 3-{[8-(3-Methyl-1-benzothiophen-5-yl)quinoxalin-6-yl]amino}pyridine-4-carbonitrile], the IC50 was 1 to 1000 nM. Then `COc1ccc(C)c(-c2cc(Nc3cnccc3S(C)(=O)=O)cc3nccnc23)c1` [Example 153, N-(4-Methanesulfonylpyridin-3-yl)-8-(5-methoxy-2-methylphenyl)quinoxalin-6-amine], with 1000 to 10000 nM; and `Cn1ccc2ccc(-c3cc(Nc4cnccc4C(=O)Oc4ccnc(N)n4)cc4nccnc34)cc21` [Example 160, 2-Aminopyrimidin-4-yl3-{[8-(1-methyl-1H-indol-6-yl)quinoxalin-6-yl]amino}pyridine-4-carboxylate], with 1 to 1000 nM. Then `CS(=O)(=O)c1ccncc1Nc1cc(-c2ccc3sncc3c2)c2nccnc2c1` [Example 161, 8-(1,2-Benzothiazol-5-yl)-N-(4-methanesulfonylpyridin-3-yl)quinoxalin-6-amine], with 1000 to 10000 nM; and `CS(=O)(=O)c1ccncc1Nc1cc(-c2ccc(NC(=O)C3CCCN3)cc2)c2nccnc2c1` (stereo not drawn) [Example 164, N-(4-{7-[(4-methanesulfonylpyridin-3-yl)amino]quinoxalin-5-yl}phenyl)pyrrolidine-2-carboxamide], with 10000 to 100000 nM. For `CS(=O)(=O)c1ccncc1Nc1cc(-c2cccc(NC(=O)C3CCCN3)c2)c2nccnc2c1` (stereo not drawn) [Example 165, N-(3-{7-[(4-Methanesulfonylpyridin-3-yl)amino]quinoxalin-5-yl}phenyl)pyrrolidine-2-carboxamide], the IC50 was 10000 to 100000 nM. Then `Cn1nnc2cc(-c3cc(Nc4cnccc4S(C)(=O)=O)cc4nccnc34)ccc21` [Example 167, N-(4-methanesulfonylpyridin-3-yl)-8-(1-methyl-1H-1,2,3-benzotriazol-5-yl)quinoxalin-6-amine], with 10000 to 100000 nM; and `Cc1nc2cc(-c3cc(Nc4cnccc4S(C)(=O)=O)cc4nccnc34)ccc2s1` [Example 169, N-(4-methanesulfonylpyridin-3-yl)-8-(2-methyl-1,3-benzothiazol-5-yl)quinoxalin-6-amine], with 10000 to 100000 nM. Consider `Cn1nnc2ccc(-c3cc(Nc4cnccc4S(C)(=O)=O)cc4nccnc34)cc21` [Example 170, N-(4-Methanesulfonylpyridin-3-yl)-8-(1-methyl-1H-1,2,3-benzotriazol-6-yl)quinoxalin-6-amine], for which the IC50 was 10000 to 100000 nM. As for `CS(=O)(=O)c1ccncc1Nc1cc(-c2ccc3nc(N)sc3c2)c2nccnc2c1` [Example 174, 8-(2-Amino-1,3-benzothiazol-6-yl)-N-(4-methanesulfonylpyridin-3-yl)quinoxalin-6-amine], the figure is 1 to 1000 nM. As to `CN(C)Cc1ccncc1Nc1cc(-c2ccc3ccn(C)c3c2)c2nccnc2c1` [Example 175, N-{4-[(dimethylamino)methyl]pyridin-3-yl}-8-(1-methyl-1H-indol-6-yl)quinoxalin-6-amine], the IC50 lay in the range of 1 to 1000 nM. Then `CN(C)Cc1ccccc1Nc1cc(-c2ccc3ccn(C)c3c2)c2nccnc2c1` [Example 176, N-{2-[(Dimethylamino)methyl]phenyl}-8-(1-methyl-1H-indol-6-yl)quinoxalin-6-amine], with 1 to 1000 nM; and `Cn1ccc2ccc(-c3cc(Nc4ccccc4C(=O)O)cc4nccnc34)cc21` [Example 178, 2-{[8-(1-Methyl-1H-indol-6-yl)quinoxalin-6-yl]amino}benzoic acid], with 1 to 1000 nM. Take `Cn1ccc2ccc(-c3cc(Nc4cnccc4C(=O)O)cc4nccnc34)cc21` [Example 179, 3-{[8-(1-Methyl-1H-indol-6-yl)quinoxalin-6-yl]amino}pyridine-4-carboxylic acid]: the IC50 was 1 to 1000 nM.
